Legend:
[1] = target: Kinesin-like protein KIF11 (Homo sapiens, UniProt P52732); assay: Kinesin ATPase In Vitro Assay; details: pH 7; 23 °C
Procedure: The kinesin motor domain is incubated with microtubules, 1 mM ATP (1: 1 MgCl2 : Na-ATP), and compound at 23°C in buffer. After reaction was terminated, free ph osphate from the ATP hydrolysis reaction is measured via a quinaldine red/ammoni um molybdate assay. The absorbance of the phospho-molybdate complex is […] Human poly-histidine tagged KSP motor domain was cloned, and protein was expressed in E. coli.

[2] = target: Potassium voltage-gated channel subfamily H member 2 (Homo sapiens, UniProt Q12809); assay: hERG Radioligand Competition Assay; details: pH 7.4; 22 °C
Procedure: The hERG IC50 values were determined by radioligand competition experiments using membrane preparations from human embryonic kidney cells that stably express hERG.

Chain of Kinesin-like protein KIF11 (P52732 whole entry, looked up, the tested form may be a part): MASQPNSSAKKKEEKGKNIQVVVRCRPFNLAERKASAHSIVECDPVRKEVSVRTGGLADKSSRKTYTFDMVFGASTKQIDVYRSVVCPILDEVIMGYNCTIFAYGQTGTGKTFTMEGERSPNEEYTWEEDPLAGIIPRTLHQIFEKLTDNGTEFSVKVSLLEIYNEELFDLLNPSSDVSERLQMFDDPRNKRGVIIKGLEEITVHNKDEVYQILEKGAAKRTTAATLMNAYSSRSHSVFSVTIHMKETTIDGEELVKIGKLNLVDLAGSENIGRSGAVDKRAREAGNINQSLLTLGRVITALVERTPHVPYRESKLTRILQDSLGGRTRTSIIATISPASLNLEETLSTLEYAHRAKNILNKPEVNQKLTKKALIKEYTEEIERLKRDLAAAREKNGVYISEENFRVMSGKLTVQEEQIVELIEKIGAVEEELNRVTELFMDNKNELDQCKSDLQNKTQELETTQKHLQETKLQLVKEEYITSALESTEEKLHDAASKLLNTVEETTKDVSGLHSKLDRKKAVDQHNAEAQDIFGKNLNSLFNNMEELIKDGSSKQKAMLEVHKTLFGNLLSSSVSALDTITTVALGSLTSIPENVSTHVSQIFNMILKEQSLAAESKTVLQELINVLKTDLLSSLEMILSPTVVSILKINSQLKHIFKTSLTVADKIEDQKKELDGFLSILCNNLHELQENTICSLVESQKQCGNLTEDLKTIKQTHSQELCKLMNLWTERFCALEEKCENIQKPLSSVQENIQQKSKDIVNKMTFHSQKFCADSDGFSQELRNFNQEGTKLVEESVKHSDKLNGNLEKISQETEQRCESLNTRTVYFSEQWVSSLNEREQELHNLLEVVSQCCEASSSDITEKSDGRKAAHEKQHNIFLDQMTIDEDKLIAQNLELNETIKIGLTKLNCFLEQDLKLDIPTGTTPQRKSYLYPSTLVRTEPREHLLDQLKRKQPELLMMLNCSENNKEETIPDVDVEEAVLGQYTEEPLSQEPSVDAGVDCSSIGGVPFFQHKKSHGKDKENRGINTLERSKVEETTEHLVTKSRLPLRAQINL
Chain of Potassium voltage-gated channel subfamily H member 2 (Q12809 whole entry): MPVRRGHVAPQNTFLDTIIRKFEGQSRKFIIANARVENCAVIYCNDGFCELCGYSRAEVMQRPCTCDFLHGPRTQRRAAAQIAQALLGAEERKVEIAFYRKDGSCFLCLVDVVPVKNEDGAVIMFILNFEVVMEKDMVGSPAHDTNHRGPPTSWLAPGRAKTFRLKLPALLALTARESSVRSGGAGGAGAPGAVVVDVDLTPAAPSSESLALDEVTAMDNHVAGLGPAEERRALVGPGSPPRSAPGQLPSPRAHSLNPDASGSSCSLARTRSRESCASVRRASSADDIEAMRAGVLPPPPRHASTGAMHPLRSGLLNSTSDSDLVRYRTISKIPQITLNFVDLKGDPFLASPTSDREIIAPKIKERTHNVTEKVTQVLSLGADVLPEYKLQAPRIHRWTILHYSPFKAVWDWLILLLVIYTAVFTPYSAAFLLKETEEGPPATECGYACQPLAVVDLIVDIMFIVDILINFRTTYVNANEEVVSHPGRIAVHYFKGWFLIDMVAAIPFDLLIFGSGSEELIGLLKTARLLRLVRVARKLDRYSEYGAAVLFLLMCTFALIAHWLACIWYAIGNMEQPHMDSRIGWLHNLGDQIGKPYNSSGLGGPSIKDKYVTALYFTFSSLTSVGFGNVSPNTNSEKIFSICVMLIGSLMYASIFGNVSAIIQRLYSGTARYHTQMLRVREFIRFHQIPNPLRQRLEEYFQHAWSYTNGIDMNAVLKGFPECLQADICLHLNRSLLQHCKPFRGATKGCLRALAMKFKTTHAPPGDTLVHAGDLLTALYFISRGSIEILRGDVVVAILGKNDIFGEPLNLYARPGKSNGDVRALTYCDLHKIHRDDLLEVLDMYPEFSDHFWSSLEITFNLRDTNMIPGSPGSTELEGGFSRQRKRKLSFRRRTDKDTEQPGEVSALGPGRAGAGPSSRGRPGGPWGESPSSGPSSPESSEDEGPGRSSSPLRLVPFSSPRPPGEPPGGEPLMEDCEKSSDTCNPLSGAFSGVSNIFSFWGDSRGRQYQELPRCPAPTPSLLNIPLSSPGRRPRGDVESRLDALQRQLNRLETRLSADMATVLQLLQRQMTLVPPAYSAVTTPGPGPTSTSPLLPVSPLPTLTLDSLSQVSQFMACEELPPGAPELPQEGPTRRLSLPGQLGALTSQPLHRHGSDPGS

CNC(=O)N1N=C(c2cc(F)ccc2F)CC1c1ccccc1 (stereo not drawn) showed an IC50 [1] of 3.14 µM.

For CC(=O)N1N=C(c2ccccc2Cl)C[C@H]1c1cccc(O)c1 [1-[(5S)-3-(2-chlorophenyl)-5-(3-hydroxyphenyl)-4,5-dihydro-1H-pyrazol-1-yl]ethan-1-one], the IC50 [1] was 0.45 µM.

CN(C)C(=O)N1N=C(c2cc(F)ccc2F)C[C@@]1(CCCN)c1ccccc1 [(5S)-5-(3-aminopropyl)-3-(2,5-difluorophenyl)-N,N-dimethyl-5-phenyl-4,5-dihydro-1H-pyrazole-1-carboxamide] gave an IC50 [2] of 19.3 µM.
